Experimental data from the supplement of paper PMC10307832.

How the values were obtained:
Assay in all cases: relative viability (nuclei count vs DMSO), 5 days (fraction); higher = more cells survive
IU1-47 + OSI-027 = compound: CC1=CC(=C(N1C2=CC=C(C=C2)Cl)C)C(=O)CN3CCCCC3 [IU1-47] + COc1cccc2cc(-c3nc([C@H]4CC[C@H](C(=O)O)CC4)n4ncnc(N)c34)[nH]c12 [OSI-027] (partner 0.5 µM)
How it was run: (§1)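 For relative viability, nuclei counts in treated wells were divided by those in vehicle wells. Lung cancer cell lines had been pin-tool dosed in 1536-well plates the day after seeding and cultured for 5 days, then fixed and stained in one step (final 0.05% Triton X-100, 1% formaldehyde, 1 ug/ml Hoechst) and imaged at 4×. Doses were one drug alone or a fixed anchor-drug dose plus five library-drug doses (not always all listed) in √10 steps, and values are duplicate-plate medians.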

FG-4592 + Luminespib = compound: Cc1nc(C(=O)NCC(=O)O)c(O)c2ccc(Oc3ccccc3)cc12 [FG-4592] + CCNC(=O)c1noc(-c2cc(C(C)C)c(O)cc2O)c1-c1ccc(CN2CCOCC2)cc1 [Luminespib] (partner 0.01 µM)
How it was run: as §1

FG-4592 + Lapatinib = compound: Cc1nc(C(=O)NCC(=O)O)c(O)c2ccc(Oc3ccccc3)cc12 [FG-4592] + CS(=O)(=O)CCNCc1ccc(-c2ccc3ncnc(Nc4ccc(OCc5cccc(F)c5)c(Cl)c4)c3c2)o1 [Lapatinib] (partner 2 µM)
How it was run: as §1

FG-4592 + AZD7762 = compound: Cc1nc(C(=O)NCC(=O)O)c(O)c2ccc(Oc3ccccc3)cc12 [FG-4592] + NC(=O)Nc1cc(-c2cccc(F)c2)sc1C(=O)N[C@H]1CCCNC1 [AZD7762] (partner 0.2 µM)
How it was run: as §1

| Cell Line | relative viability (IU1-47 + OSI-027; first compound 0.08 µM) | relative viability (IU1-47 + OSI-027; first compound 0.253 µM) | relative viability (IU1-47 + OSI-027; first compound 0.8 µM) | relative viability (IU1-47 + OSI-027; first compound 2.53 µM) | relative viability (IU1-47 + OSI-027; first compound 8 µM) | relative viability (FG-4592 + Luminespib; first compound 0.08 µM) | relative viability (FG-4592 + Luminespib; first compound 0.253 µM) | relative viability (FG-4592 + Luminespib; first compound 0.8 µM) | relative viability (FG-4592 + Luminespib; first compound 2.53 µM) | relative viability (FG-4592 + Luminespib; first compound 8 µM) | relative viability (FG-4592 + Lapatinib; first compound 0.08 µM) | relative viability (FG-4592 + Lapatinib; first compound 0.253 µM) | relative viability (FG-4592 + Lapatinib; first compound 0.8 µM) | relative viability (FG-4592 + Lapatinib; first compound 2.53 µM) | relative viability (FG-4592 + Lapatinib; first compound 8 µM) | relative viability (FG-4592 + AZD7762; first compound 0.08 µM) | relative viability (FG-4592 + AZD7762; first compound 0.253 µM) | relative viability (FG-4592 + AZD7762; first compound 0.8 µM) | relative viability (FG-4592 + AZD7762; first compound 2.53 µM) | relative viability (FG-4592 + AZD7762; first compound 8 µM) |
| --- | --- | --- | --- | --- | --- | --- | --- | --- | --- | --- | --- | --- | --- | --- | --- | --- | --- | --- | --- | --- |
| NCI-H2085 | 0.724 | 0.748 | 0.872 | 0.531 | 0.729 | 0.439 | 0.47 | 0.389 | 0.426 | 0.462 | 0.633 | 0.747 | 0.607 | 0.723 | 0.824 | 0.983 | 0.956 | 0.905 | 0.992 | 0.893 |
| NCI-H2087 | 0.834 | 0.582 | 0.506 | – | 0.531 | 0.196 | 0.151 | 0.142 | 0.151 | 0.148 | 0.888 | 0.943 | 1.37 | 1.1 | 1.15 | 1.34 | 1.24 | 1.32 | – | 1.38 |
| NCI-H2126 | 0.729 | 0.883 | 0.673 | 0.539 | 0.649 | 0.918 | 0.904 | 0.887 | 0.759 | 0.603 | 0.672 | 0.708 | 0.604 | 0.613 | 0.589 | 1.04 | 0.951 | 0.918 | 1.06 | 1.01 |
| NCI-H2170 | 0.865 | 0.725 | 0.645 | 0.722 | 0.727 | 0.653 | 0.62 | 0.538 | 0.606 | 0.501 | 0.263 | 0.244 | 0.242 | 0.277 | 0.256 | 0.755 | 0.834 | 0.816 | 0.817 | 0.643 |
| NCI-H2347 | 0.318 | 0.456 | 0.43 | 0.398 | 0.375 | 0.4 | – | 0.258 | 0.323 | 0.293 | 0.906 | – | 0.848 | 0.917 | 0.974 | 0.72 | 0.546 | 0.724 | 0.85 | 0.744 |
| NCI-H2405 | 0.664 | 0.663 | 0.695 | 0.533 | 0.618 | 0.577 | – | 0.675 | 0.691 | 0.658 | – | 0.733 | 0.87 | 0.918 | 0.702 | 0.659 | 0.642 | 0.756 | 0.649 | 0.592 |
| NCI-H3122 | 1.07 | 0.961 | 1.05 | 0.987 | 0.954 | 0.079 | 0.108 | 0.0631 | 0.092 | 0.0857 | 1.1 | 0.989 | 1.03 | 1.08 | 1.1 | 0.985 | 0.922 | 1.06 | 1.02 | 0.952 |
| PC-3 [JPC-3] | 0.796 | 0.874 | 0.716 | 0.705 | 0.555 | 0.735 | 0.639 | 0.817 | 0.798 | 0.575 | 0.446 | 0.419 | 0.362 | 0.402 | 0.439 | 0.802 | 0.762 | – | 0.726 | 0.8 |
| PC-14 | 0.881 | 0.925 | 1.11 | 0.302 | 0.847 | 0.136 | 0.177 | 0.143 | 0.197 | 0.16 | 0.365 | 0.317 | 0.345 | 0.336 | 0.298 | 0.356 | 0.341 | 0.284 | 0.342 | 0.282 |
| RERF-LC-KJ | 0.596 | 0.586 | 0.565 | 0.36 | 0.567 | 1.23 | 1.24 | 1.45 | 1.17 | 0.991 | 0.793 | 0.816 | 0.86 | 0.899 | 0.725 | 0.913 | 0.992 | 0.815 | 0.883 | 0.969 |
